{"source": "patent US20210259954A1", "about": "“CILIA-TARGETING NANOPARTICLES” (Chapman University, priority 2019, published 2021)", "key": {"[1]": {"test_system": "Tie2Cre⋅Pkd2^flox/flox mice", "assay": "Working heart perfusion system, hearts of treated Pkd2 mice (Example 1)", "format": "in vivo, mouse", "conditions": "for CO, cardiac output / EDPVR, end-diastolic pressure volume relation / EF, ejection fraction / ESPVR, end-systolic pressure volume relation / HR, heart rate / LV EDP, end-diastolic pressure / LV EDV, end-diastolic volume / LV ESP, end-systolic pressure / LV ESV, end-systolic volume / LV Pmax, systolic pressure / SV, stroke volume / SW, stroke work / dP/dtmax, maximum rate of LV pressure rise / dP/dtmin, maximum rate of LV pressure fall: Pkd2 heart", "description": "One-week-old Tie2Cre⋅Pkd2^WT/WT (with cre activation; control group) or Tie2Cre⋅Pkd2^flox/flox (without cre activation; control group), and Tie2Cre⋅Pkd2^flox/flox (with cre activation; experimental group) mice were injected intra-peritoneally with 5 μg/μL tamoxifen every day for five consecutive days. […] The mice were next injected with PBS (control), CT-DAu-NPs or CT-PLGA-NPs (0.5 to 2.0 mg/kg body weight) via intravenous (IV) injections. […] The mice were treated every 72 hours with different NPs for 8 weeks.\nWorking Heart Perfusion System. To study heart function independently from neuronal innervation or humoral effect, ex vivo heart parameters were collected using a mouse working heart system from Emka Technologies. This system collected data of the cardiac contractile strength, electrical heart propagation (ECG; electrocardiogram) and other cardiac functions, including the heart rate (HR), left ventricle pressure (LVP), left ventricular volume (LVV), left atrial pressure (LAP), aortic out flow (AOF), stroke volume (SV), cardiac output (CO), end diastolic/systolic volume (Edv-Esv), rate of left atrial pressure raise (+dp/dt) and fall (−dt/dt), preload, afterload, and main aortic pressure. Heparin (100 units, IP), xylazine (10-15 mg/kg, IP), and ketamine (200-350 mg/kg, IP) were used to prevent blood coagulation in the coronary arteries and to anesthetize the mice. After cannulation, the heart was perfused with Krebs-Ringer superfusion solution (in mM: 125 NaCl, 2.5 KCl, 1.25 NaH2PO4, 2 CaCl2, 1 MgCl2, 25 NHCO3 and 25 glucose). Throughout the experiment, the solution was continuously bubbled with carbogen (95% O2 and 5% CO2) to reach 7.4 pH at 38° C. Stress tests were performed in the heart by perfusing epinephrine (4 μg/L) or diltiazem (0.08 μg/L). The cardiac function was plotted in a loop diagram showing the LVV-LVP relationship (volume-pressure loop)."}, "[2]": {"assay": "Pharmacokinetics of fenoldopam in mice (Example 1)", "format": "in vivo, mouse", "conditions": "30-minute infusion vs bolus of fenoldopam-loaded CTNDDS", "method": "The pharmacokinetics of different NPs treated mice were studied. […] All drugs were extracted from plasma samples and HPLC analysis performed. In the biodistribution studies, whole organs from the fluorescent-labelled NPs treated mice (heart, kidney, liver, spleen and lung) were collected, homogenized and measured for fluorescence intensity to assess the amount of NP distribution in different organs at 24- and 72-hours after treatments. For the in vivo toxicity studies, 200 μL of blood samples were collected from different treatments (PBS, CT-DAu-NPs or CT-PLGA-NPs). Biochemistry was performed using biochemical analyzer (VetScan VS2)."}, "[3]": {"test_system": "Tie2Cre⋅Pkd2^flox/flox mice", "assay": "Endothelial-specific Pkd2 mouse model, 8-week treatment (Example 2)", "format": "in vivo", "method": "Mouse models. All mouse experiments were performed by two operators who were blinded to the experimental conditions. All animal procedures were performed according to the University of California Irvine and Chapman University Animal Care and Use Committee Guidelines. One-week-old Tie2Cre⋅Pkd2^WT/WT (with Cre activation; control group), Tie2Cre⋅Pkd2^flox/flox (without Cre activation; control group) or Tie2Cre⋅Pkd2^flox/flox (with Cre activation; experimental group) mice were intraperitoneally injected with 250 μg of tamoxifen in a 50-μL volume daily for five consecutive days. A limited number of IFT88 mice was also used as a cilia-less model in this study. […] On the other hand, fenoldopam-alone (1 μg/kg/min) was perfused for 30 minutes every 72 hours for 8 weeks. […] Five minutes after the CT-Fe2O3-NP injection, a 1.35-T AlNiCo cylindrical magnet (VWR International) was placed at the posterior and anterior regions of the mouse for 10 minutes daily.\nMouse blood pressure measurements. […] Blood pressure was measured twice daily for the duration of the study after the initial three days of acclimating each mouse to the cuff. All measurements were performed by operators in a double-blind. At the end of the 12-week treatment, the haematology results including the BUN and plasma nitrate/nitrite measurements were examined. BUN assays were conducted using an Arbor Assays calorimetric Detection Kit. Plasma nitrate/nitrite concentrations were quantified using a Cayman nitrate/nitrite assay kit. All steps were performed according to the manufacturers' instructions.\nH&E and Masson's trichrome staining. Sections of the zebrafish (whole body) and major mouse organs, including the hearts, kidneys, livers, spleens and lungs, were collected and subjected to H&E staining for zebrafish cysts and histopathology by fixation in 10% formalin. Then, the tissues were dehydrated in buffered formalin, ethanol, and xylene. Finally, the tissues were embedded in liquid paraffin, sectioned (4 μm), and stained with H&E for histological examinations. The pathology slices were observed and imaged using a KEYENCE-BZ-X710 microscope. Mouse heart sections were stained with Masson's trichrome to detect fibrosis using a Masson's Trichrome Stain Kit (Polysciences)."}}}
{"molecule": "Oc1ccc(C2CNCCc3c2cc(O)c(O)c3Cl)cc1", "note": "(centres unmarked) [Fenoldopam, fenoldopam]", "values": [{"measurement": "CO, cardiac output", "setting": "[1]; diltiazem stress", "value": "1873 ± 70", "unit": "µL/min"}, {"measurement": "EDPVR, end-diastolic pressure volume relation", "setting": "[1]; diltiazem stress", "value": "0.14 ± 0.01", "unit": "mmHg/μL"}, {"measurement": "EF, ejection fraction", "setting": "[1]; diltiazem stress", "value": "51.6 ± 1.4", "unit": "%"}, {"measurement": "ESPVR, end-systolic pressure volume relation", "setting": "[1]; diltiazem stress", "value": "2.3 ± 0.1", "unit": "mmHg/μL"}, {"measurement": "HR, heart rate", "setting": "[1]; diltiazem stress", "value": "98 ± 9", "unit": "beat/min"}, {"measurement": "LV EDP, end-diastolic pressure", "setting": "[1]; diltiazem stress", "value": "5.7 ± 0.2", "unit": "mmHg"}, {"measurement": "LV EDV, end-diastolic volume", "setting": "[1]; diltiazem stress", "value": "40.3 ± 0.8", "unit": "µL"}, {"measurement": "LV ESP, end-systolic pressure", "setting": "[1]; diltiazem stress", "value": "33.5 ± 0.5", "unit": "mmHg"}, {"measurement": "LV ESV, end-systolic volume", "setting": "[1]; diltiazem stress", "value": "19.5 ± 0.6", "unit": "µL"}, {"measurement": "LV Pmax, systolic pressure", "setting": "[1]; diltiazem stress", "value": "44.7 ± 0.7", "unit": "mmHg"}, {"measurement": "SV, stroke volume", "setting": "[1]; diltiazem stress", "value": "20.8 ± 0.8", "unit": "µL"}, {"measurement": "SW, stroke work", "setting": "[1]; diltiazem stress", "value": "812 ± 29", "unit": "mmHg · μL"}, {"measurement": "dP/dtmax, maximum rate of LV pressure rise", "setting": "[1]; diltiazem stress", "value": "4020 ± 643", "unit": "mmHg/s"}, {"measurement": "dP/dtmin, maximum rate of LV pressure fall", "setting": "[1]; diltiazem stress", "value": "−1537 ± 97", "unit": "mmHg/s"}, {"measurement": "CO, cardiac output", "setting": "[1]; epinephrine stress", "value": "6810 ± 347", "unit": "µL/min"}, {"measurement": "EDPVR, end-diastolic pressure volume relation", "setting": "[1]; epinephrine stress", "value": "0.16 ± 0.01", "unit": "mmHg/μL"}, {"measurement": "EF, ejection fraction", "setting": "[1]; epinephrine stress", "value": "77.7 ± 2.0", "unit": "%"}, {"measurement": "ESPVR, end-systolic pressure volume relation", "setting": "[1]; epinephrine stress", "value": "9.7 ± 0.9", "unit": "mmHg/μL"}, {"measurement": "HR, heart rate", "setting": "[1]; epinephrine stress", "value": "219 ± 44", "unit": "beat/min"}, {"measurement": "LV EDP, end-diastolic pressure", "setting": "[1]; epinephrine stress", "value": "6.4 ± 0.5", "unit": "mmHg"}, {"measurement": "LV EDV, end-diastolic volume", "setting": "[1]; epinephrine stress", "value": "39.9 ± 0.1", "unit": "µL"}, {"measurement": "LV ESP, end-systolic pressure", "setting": "[1]; epinephrine stress", "value": "63.2 ± 0.3", "unit": "mmHg"}, {"measurement": "LV ESV, end-systolic volume", "setting": "[1]; epinephrine stress", "value": "8.9 ± 0.8", "unit": "µL"}, {"measurement": "LV Pmax, systolic pressure", "setting": "[1]; epinephrine stress", "value": "84.3 ± 0.4", "unit": "mmHg"}, {"measurement": "SV, stroke volume", "setting": "[1]; epinephrine stress", "value": "31.1 ± 0.7", "unit": "µL"}, {"measurement": "SW, stroke work", "setting": "[1]; epinephrine stress", "value": "2417 ± 28", "unit": "mmHg · μL"}, {"measurement": "dP/dtmax, maximum rate of LV pressure rise", "setting": "[1]; epinephrine stress", "value": "16864 ± 85", "unit": "mmHg/s"}, {"measurement": "dP/dtmin, maximum rate of LV pressure fall", "setting": "[1]; epinephrine stress", "value": "−3843 ± 277", "unit": "mmHg/s"}, {"measurement": "CO, cardiac output", "setting": "[1]; vehicle", "value": "3486 ± 81", "unit": "µL/min"}, {"measurement": "EDPVR, end-diastolic pressure volume relation", "setting": "[1]; vehicle", "value": "0.13 ± 0.01", "unit": "mmHg/μL"}, {"measurement": "EF, ejection fraction", "setting": "[1]; vehicle", "value": "62.5 ± 0.2", "unit": "%"}, {"measurement": "ESPVR, end-systolic pressure volume relation", "setting": "[1]; vehicle", "value": "4.4 ± 0.1", "unit": "mmHg/μL"}, {"measurement": "HR, heart rate", "setting": "[1]; vehicle", "value": "140 ± 24", "unit": "beat/min"}, {"measurement": "LV EDP, end-diastolic pressure", "setting": "[1]; vehicle", "value": "5.0 ± 0.1", "unit": "mmHg"}, {"measurement": "LV EDV, end-diastolic volume", "setting": "[1]; vehicle", "value": "40.0 ± 0.1", "unit": "µL"}, {"measurement": "LV ESP, end-systolic pressure", "setting": "[1]; vehicle", "value": "49.7 ± 1.5", "unit": "mmHg"}, {"measurement": "LV ESV, end-systolic volume", "setting": "[1]; vehicle", "value": "15.0 ± 0.1", "unit": "µL"}, {"measurement": "LV Pmax, systolic pressure", "setting": "[1]; vehicle", "value": "66.3 ± 2.0", "unit": "mmHg"}, {"measurement": "SV, stroke volume", "setting": "[1]; vehicle", "value": "24.9 ± 0.1", "unit": "µL"}, {"measurement": "SW, stroke work", "setting": "[1]; vehicle", "value": "1530 ± 20", "unit": "mmHg · μL"}, {"measurement": "dP/dtmax, maximum rate of LV pressure rise", "setting": "[1]; vehicle", "value": "7157 ± 211", "unit": "mmHg/s"}, {"measurement": "dP/dtmin, maximum rate of LV pressure fall", "setting": "[1]; vehicle", "value": "−1624 ± 24", "unit": "mmHg/s"}, {"measurement": "LVP/LVV abnormalities (P-V loops)", "setting": "[1]; Pkd2 hearts", "value": "Both CTNDDS but not fenoldopam-alone corrected these abnormalities"}, {"measurement": "arrhythmia (ECG)", "setting": "[1]; Pkd2 hearts, 8-week treatment", "value": "could be corrected with 8-week treatment of CTNDDS but not fenoldopam-alone"}, {"measurement": "total plasma concentration of fenoldopam (area under the curve, one hour)", "setting": "[2]", "value": "significantly higher"}, {"measurement": "acute blood pressure and heart rate", "setting": "[3]; 60 minutes after infusion", "value": "immediate decrease in blood pressure, followed by reflex tachycardia"}, {"measurement": "blood pressure (SBP, MAP)", "setting": "[3]; Pkd2 mice, every 72 hours for 8 weeks", "value": "did not result in an overall decrease in systemic blood pressure"}, {"measurement": "mortality", "setting": "[3]; Pkd2 mice, repeated infusions for 8 weeks", "value": 40, "unit": "%"}, {"measurement": "duration of blood pressure decrease", "setting": "[3]; after infusion", "value": "approximately one"}, {"measurement": "cilia length", "setting": "[3]; continuous infusion for 5 days", "value": "increased the cilia length"}]}
